Source: ChEMBL document CHEMBL1201862, “PubChem BioAssay data set” (2004)
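Grown in 96-well plates, cells were treated for 48 hours with each compound at five concentrations. Insufficient inhibition: endpoint recorded as highest concentration tested. GI50 = concentration required for 50% inhibition of growth.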 Calls of active or inactive are those of the source. Rule as the data show it: active = GI50 up to about 1.1 µM and inactive = higher.

What was measured:
Experiment in all cases: growth of human tumour cells (NCI), 48 h
[1] = test system: NCI-H522
[2] = test system: 786-0
[3] = test system: ACHN
[4] = test system: BT-549
[5] = test system: PC-3
[6] = test system: CAKI-1
[7] = test system: Malme-3M
[8] = test system: MDA-MB-231
[9] = test system: SR
[10] = test system: A549
[11] = test system: UACC-257
[12] = test system: NCI-H460
[13] = test system: SF-268
[14] = test system: Hs-578T
[15] = test system: EKVX
[16] = test system: UACC-62
[17] = test system: NCI-H23
[18] = test system: HOP-62
[19] = test system: A498
[20] = test system: U-251
[21] = test system: SNB-19
[22] = test system: UO-31
[23] = test system: SF-539
[24] = test system: MDA-N
[25] = test system: SW-620
[26] = test system: K562
[27] = test system: HT-29
[28] = test system: NCI-H226
[29] = test system: HL-60
[30] = test system: RXF 393
[31] = test system: IGROV-1
[32] = test system: KM12
[33] = test system: HCC 2998
[34] = test system: CCRF-CEM
[35] = test system: SNB-75
[36] = test system: OVCAR-8
[37] = test system: SK-MEL-5
[38] = test system: LOX IMVI
[39] = test system: MDA-MB-435
[40] = test system: SK-MEL-28
[41] = test system: HOP-92
[42] = test system: OVCAR-5
[43] = test system: OVCAR-4
[44] = test system: OVCAR-3
[45] = test system: HCT-116
[46] = test system: RPMI-8226
[47] = test system: SN12C
[48] = test system: SK-OV-3
[49] = test system: T47D
[50] = test system: DU-145
[51] = test system: HCT-15
[52] = test system: COLO 205
[53] = test system: SF-295
[54] = test system: SK-MEL-2
[55] = test system: MCF7
[56] = test system: NCI/ADR-RES
[57] = test system: TK-10
[58] = test system: M14
[59] = test system: MOLT-4

## CC(=O)NC1C(O)C(O)C(CO)OC1n1ncc(=O)[nH]c1=O (stereo not drawn)
[1]
  GI50: > 100 µM (inactive)
[2]
  GI50: > 100 µM (inactive)
[3]
  GI50: > 100 µM (inactive)
[4]
  GI50: > 100 µM (inactive)
[5]
  GI50: > 100 µM (inactive)
[6]
  GI50: > 100 µM (inactive)
[7]
  GI50: > 100 µM (inactive)
[8]
  GI50: > 100 µM (inactive)
[9]
  GI50: > 100 µM (inactive)
[10]
  GI50: > 100 µM (inactive)
[11]
  GI50: > 100 µM (inactive)
[12]
  GI50: > 100 µM (inactive)
[13]
  GI50: > 100 µM (inactive)
[14]
  GI50: > 100 µM (inactive)
[15]
  GI50: > 100 µM (inactive)
[16]
  GI50: > 100 µM (inactive)
[17]
  GI50: > 100 µM (inactive)
[18]
  GI50: > 100 µM (inactive)
[19]
  GI50: > 100 µM (inactive)
[20]
  GI50: > 100 µM (inactive)
[21]
  GI50: > 100 µM (inactive)
[22]
  GI50: > 100 µM (inactive)
[23]
  GI50: > 100 µM (inactive)
[24]
  GI50: > 100 µM (inactive)
[25]
  GI50: > 100 µM (inactive)
[26]
  GI50: > 100 µM (inactive)
[27]
  GI50: > 100 µM (inactive)
[28]
  GI50: > 100 µM (inactive)
[29]
  GI50: > 100 µM (inactive)
[30]
  GI50: > 100 µM (inactive)
[31]
  GI50: > 100 µM (inactive)
[32]
  GI50: > 100 µM (inactive)
[33]
  GI50: > 100 µM (inactive)
[34]
  GI50: > 100 µM (inactive)
[35]
  GI50: > 100 µM (inactive)
[36]
  GI50: > 100 µM (inactive)
[37]
  GI50: > 100 µM (inactive)
[38]
  GI50: > 100 µM (inactive)
[39]
  GI50: > 100 µM (inactive)
[40]
  GI50: > 100 µM (inactive)
[41]
  GI50: > 100 µM (inactive)
[42]
  GI50: > 100 µM (inactive)
[43]
  GI50: > 100 µM (inactive)
[44]
  GI50: > 100 µM (inactive)
[45]
  GI50: > 100 µM (inactive)
[46]
  GI50: > 100 µM (inactive)
[47]
  GI50: > 100 µM (inactive)
[48]
  GI50: > 100 µM (inactive)
[49]
  GI50: > 100 µM (inactive)
[50]
  GI50: > 100 µM (inactive)
[51]
  GI50: > 100 µM
[52]
  GI50: > 100 µM (inactive)
[53]
  GI50: > 100 µM (inactive)
[54]
  GI50: > 100 µM (inactive)
[55]
  GI50: > 100 µM (inactive)
[56]
  GI50: > 100 µM (inactive)
[57]
  GI50: > 100 µM (inactive)
[58]
  GI50: > 100 µM (inactive)
[59]
  GI50: > 100 µM (inactive)

## OCCCNCC(O)c1ccc(OCc2ccccc2)c(OCc2ccccc2)c1 (stereo not drawn)
[1]
  GI50: 14.1 µM (inactive)
[2]
  GI50: 7.48 µM (inactive)
[3]
  GI50: 10.4 µM (inactive)
[4]
  GI50: 15.8 µM (inactive)
[5]
  GI50: 10.9 µM (inactive)
[6]
  GI50: 17.6 µM (inactive)
[7]
  GI50: 15.8 µM (inactive)
[8]
  GI50: 14 µM (inactive)
[9]
  GI50: 10.9 µM (inactive)
[10]
  GI50: 11.6 µM (inactive)
[11]
  GI50: 11.2 µM (inactive)
[12]
  GI50: 7.52 µM (inactive)
[13]
  GI50: 15.3 µM (inactive)
[14]
  GI50: 13.6 µM (inactive)
[15]
  GI50: 15 µM (inactive)
[16]
  GI50: 20 µM (inactive)
[17]
  GI50: 17.5 µM (inactive)
[18]
  GI50: 14.3 µM (inactive)
[19]
  GI50: 11.9 µM (inactive)
[20]
  GI50: 9.75 µM (inactive)
[21]
  GI50: 17.3 µM (inactive)
[22]
  GI50: 15 µM (inactive)
[23]
  GI50: 10.9 µM (inactive)
[24]
  GI50: 9.64 µM (inactive)
[25]
  GI50: 8.34 µM (inactive)
[26]
  GI50: 8.45 µM (inactive)
[27]
  GI50: 8.24 µM (inactive)
[28]
  GI50: 12.4 µM (inactive)
[29]
  GI50: 6.38 µM (inactive)
[30]
  GI50: 23.4 µM (inactive)
[31]
  GI50: 10.2 µM (inactive)
[32]
  GI50: 12.5 µM (inactive)
[33]
  GI50: 5.3 µM (inactive)
[34]
  GI50: 8.15 µM (inactive)
[35]
  GI50: 6.12 µM (inactive)
[36]
  GI50: 11.4 µM (inactive)
[37]
  GI50: 7.03 µM (inactive)
[38]
  GI50: 6.35 µM (inactive)
[39]
  GI50: 7.8 µM (inactive)
[40]
  GI50: 8.95 µM (inactive)
[41]
  GI50: 7.59 µM (inactive)
[42]
  GI50: 15.7 µM (inactive)
[43]
  GI50: 7.41 µM (inactive)
[44]
  GI50: 15.9 µM (inactive)
[45]
  GI50: 8.47 µM (inactive)
[46]
  GI50: 8.47 µM (inactive)
[47]
  GI50: 15.3 µM (inactive)
[48]
  GI50: 9.51 µM (inactive)
[49]
  GI50: 15.6 µM (inactive)
[50]
  GI50: 16.9 µM (inactive)
[51]
  GI50: 13.1 µM
[52]
  GI50: 4.76 µM (inactive)
[53]
  GI50: 10.4 µM (inactive)
[54]
  GI50: 8.02 µM (inactive)
[55]
  GI50: 8.04 µM (inactive)
[56]
  GI50: 18.7 µM (inactive)
[57]
  GI50: 7.91 µM (inactive)
[58]
  GI50: 17.1 µM (inactive)
[59]
  GI50: 8.3 µM (inactive)
